Test results published in article PMC10593742, “Binding mechanism and biological effects of flavone DYRK1A inhibitors for the design of new antidiabetics” (Scientific Reports, 2023).
Like-named read-outs stand apart in the source and are kept apart here.

Columns and labels:
[1] = tested on: MIN6 cells; test: MIN6 cell proliferation by Ki-67 staining and flow cytometry; type: cell-based, mouse; details: for Ki-67-positive cells, combination with GLP-1 / Ki-67-positive cells, combination with LY364947: MIN6; for Ki-67-positive cells, combination with GLP-1: GLP-1 5 nM
[2] = tested on: MIN6 cells; test: Insulin expression level by flow cytometry, MIN6; type: cell-based, mouse; details: for effect on insulin level over 12 days: MIN6, compound alone, 24 h incubation
[3] = tested on: INS-1E cells; test: Insulin expression level by flow cytometry, INS-1E; type: cell-based, rat; details: for effect on insulin level over 12 days: compound alone, 24 h incubation; for insulin level: harmine 1 μM
[4] = tested on: hiPSC-derived beta cells organoids; test: Glucose-stimulated insulin secretion by ELISA, hiPSC-derived pancreatic islet organoids; type: cell-based, human; details: 24 h incubation; for insulin secretion by organoids (GSIS, ELISA): compound alone
Protocol: Differentiation of hiPSC into iPSC-derived β-cell islets was carried out following the protocol established by Pellegrini et al.[50]. A day before differentiation, 1 × 10^4 cells were seeded on coated with Geltrex (Gibco) 12 wells plate in Essential 8 medium (Gibco) with Y-27632 10 µM (Abcam). The appropriate culture media and required components based on the protocol of Pellegrini with modifications, as published in Barzowska et al.[37].
Cells and organoids were homogenized in lysis buffer.
Figure 9 Quercetin and TGFβ inhibitor—LY364947 collectively support insulin release from hiPSC-derived pancreatic islet organoids. (A) The analysis of insulin secretion by ELISA assay. […] The organoids were immunostained for insulin (green) and cytoskeleton (red). The nuclei were stained with Hoechst 33258 (blue). Scale bars, 20 μm.

[5] = molecular target: T1, DYRK1A (Homo sapiens, UniProt Q13627); test: Cook activity assay (DYRK1A-catalyzed phosphorylation of DYRKtide, ADP production linked to PK/LDH NADH oxidation); type: biochemical; details: for IC50: read-out: IC50 (DYRK1A inhibition)
T1 construct: In the assay, the truncated DYRK1A protein restricted to the kinase domain (126–490) was used; made in house; host or cells: E. coli LOBSTR strain

[6] = tested on: DYRK1A-dependent CyclinD1 phosphorylation; test: CyclinD1 phosphorylation profile in transfected HEK293T cells (Western blot); type: cell-based; details: 10 μM, 6 h; HEK293T co-transfected with HA-CyclinD1 and Flag-DYRK1A
[7] = tested on: DYRK1A-related NFAT signaling; test: NFAT activity luciferase assay in HEK293T NFAT cells; type: cell-based; details: for increase in Renilla luciferase activity (NFAT reporter): 10 μM, 3 h pre-treatment, then PMA/IM 5 h, relative to DMSO
[8] = LogP determination by the shake-flask method; type: physicochemical; details: n-octanol/PBS
[9] = tested on: MIN6 cells; test: MTT cytotoxicity and cell survival assay, MIN6; details: MIN6, 24 h
[10] = tested on: INS-1E cells; test: MTT cytotoxicity and cell survival assay, INS-1E; details: for concentration range with increased cell viability (MTT): 24 h; for cytotoxic effect, combination with LY364947 or GLP-1: LY364947 […] or GLP-1 5 nM, gossypin […], rutin 1 μM
[11] = tested on: MIN6 cells; test: Glucose-stimulated insulin secretion (GSIS) quantified by ELISA, MIN6; details: GLP-1 5 nM
[12] = tested on: DYRK1A-controlled calcineurin/NFAT pathway; test: NFAT translocation assay (NFAT-GFP, mCherry-DYRK1A) in HEK293T cells; type: cell-based; details: 10 μM, 3 h, then IM 5 μM 1 h
[13] = 5 μM, 10 μM and 20 μM of compound, DMSO = 100%
[14] = kinase domain (126–490), compound 20 nM–200 μM, ATP (128 µM)

| Compound | increase in proliferation rate (Ki-67-positive cells) vs control ([1]; MIN6, compound alone) | effect on residual DYRK1A activity [5, 13] | IC50 [5, 14] [µM] | CyclinD1 phosphorylation (p-CyclinD1 at Thr289) [6] | increase in Renilla luciferase activity (NFAT reporter) [7] | concentration range with increased cell viability (MTT) [9] | concentration range with increased cell viability (MTT) [10] | also measured |
| --- | --- | --- | --- | --- | --- | --- | --- | --- |
| c1ccc(-c2[nH]ncc2-c2ccnc3ccccc23)nc1 [LY364947] | up to 5% |  |  |  |  |  |  | effect on insulin level over 12 days [2]: less prominent but constant effect over the 12 days; effect on insulin level over 12 days [3]: less prominent but constant effect over the 12 days; insulin secretion by organoids (GSIS, ELISA) [4]: less pronounced effect |
| O=c1cc(-c2ccc(O)cc2)oc2cc(O[C@@H]3O[C@H](CO)[C@@H](O)[C@H](O)[C@H]3O)cc(O)c12 [apigetrin, 5-hydroxy-2-(4-hydroxyphenyl)-7[(2S,3R,4S,5S,6R)3,4,5-trihydroxy-6-(hydroxymethyl)oxan-2-yl]oxychromen-4-one] |  | no influence on DYRK1A activity |  |  |  |  |  |  |
| O=c1cc(-c2ccccc2)oc2cc(O)c(O)c(O)c12 [baicalein, 5,6,7-trihydroxy-2-phenylchromen-4-one] | 5% | decreased DYRK1A activity dose-dependently | 3.6 | significantly reduced CyclinD1 phosphorylation | threefold | 0.1 to 2.5 µM | 0.1 to 2.5 µM | logP at 15 min [8]: 2.55; Ki-67-positive cells, combination with GLP-1 ([1]; control cells 32%): 55%; Ki-67-positive cells, combination with LY364947 ([1]; control cells 32%): 48%; insulin secretion (GSIS, ELISA), combination with GLP-1 [11]: improve insulin secretion |
| COc1cc(-c2cc(=O)c3c(O)c(OC)c(OC)c(OC)c3o2)cc(OC)c1OC [gardenin A, 5-hydroxy-6,7,8-trimethoxy-2-(3,4,5-trimethoxyphenyl)chromen-4-one] |  | no influence on DYRK1A activity |  |  |  |  |  |  |
| O=c1c(O)c(-c2ccc(O)c(O)c2)oc2c(O[C@@H]3O[C@H](CO)[C@@H](O)[C@H](O)[C@H]3O)c(O)cc(O)c12 [gossypin, 2-(3,4-dihydroxyphenyl)-3,5,7-trihydroxy-8-[(2S,3R,4S,5S,6R)-3,4,5-trihydroxy-6-(hydroxymethyl)oxan-2-yl]oxychromen-4-one] |  | decreased DYRK1A activity dose-dependently | 1.4 | significantly reduced CyclinD1 phosphorylation | twofold | did not influence cell viability | did not influence cell viability | LogP [8]: negative logP; cytotoxic effect, combination with LY364947 or GLP-1 [10]: slight cytotoxic effect |
| COc1ccc2c(c1)[nH]c1c(C)nccc12 [harmine] | about 20% |  |  |  |  | 0.01 to 10 µM | 1 to 2.5 µM | nuclear translocation of NFAT-GFP despite mCherry-DYRK1A overexpression [12]: induced nuclear translocation of NFAT-GFP; logP at 15 min [8]: 3.24; Ki-67-positive cells ([1]; MIN6, compound alone, control cells 32%): 50%; Ki-67-positive cells, combination with GLP-1 ([1]; control cells 32%): 55%; Ki-67-positive cells, combination with LY364947 ([1]; control cells 32%): 58%; insulin level ([2]; MIN6, day 12, control 24%, harmine 1 μM): 37%; effect on the GLP-1-induced increase in insulin production level, administered simultaneously with GLP-1 ([2]; MIN6, GLP-1 5 nM): attenuated; effect on the GLP-1-induced increase in insulin production level, administered simultaneously with GLP-1 ([3]; GLP-1 5 nM): attenuated; insulin level ([3]; day 1, control 10%): 37%; insulin level ([3]; day 5, control 28%): 34%; insulin secretion by organoids (GSIS, ELISA), with LY364947 addition [4]: enhanced by LY364947 addition; insulin secretion by organoids (GSIS, ELISA) [4]: highest insulin secretion level; concentrations at which mild toxicity was observed (MTT) [9]: higher than 50 μM |
| O=c1c(O)c(-c2ccc(O)cc2)oc2c(O)c(O)cc(O)c12 [herbacetin, 3,5,7,8-tetrahydroxy-2-(4-hydroxyphenyl)chromen-4-one] |  | decreased DYRK1A activity dose-dependently | 6.3 | Moderate inhibition of CyclinD1 phosphorylation |  | Identical results | Identical results | activation of NFAT response ([7]; 1 to 10 μM): only effective at the highest concentration tested; logP at 15 min [8]: 1.72 |
| C[C@@H]1O[C@@H](Oc2c(-c3cc(O)c(O)c(O)c3)oc3cc(O)cc(O)c3c2=O)[C@H](O)[C@H](O)[C@H]1O [myricitrin, 5,7-dihydroxy-3-[(2S,3R,4R,5R,6S)-3,4,5-trihydroxy-6-methyloxan-2-yl]oxy-2-(3,4,5-trihydroxyphenyl)chromen-4-one] |  | no influence on DYRK1A activity |  |  |  |  |  |  |
| O=c1c(O)c(-c2ccc(O)c(O)c2)oc2cc(O)cc(O)c12 [quercetin, 2-(3,4-dihydroxyphenyl)-3,5,7-trihydroxychromen-4-one] |  |  |  | significantly reduced CyclinD1 phosphorylation | threefold | 0.25 to 5 µM | 0.25 to 5 µM | effect on residual DYRK1A activity [5]: decreased DYRK1A activity dose-dependently; IC50 [5]: 1.7 µM; LogP [8]: 1.40; Ki-67-positive cells, combination with GLP-1 ([1]; control cells 32%): modest effect; effect on insulin level over 12 days [2]: noticeable decrease in insulin level on day 12; effect on insulin level over 12 days [3]: noticeable decrease in insulin level on day 12; insulin secretion by organoids (GSIS, ELISA), with LY364947 addition [4]: enhanced by LY364947 addition; insulin secretion by organoids (GSIS, ELISA) [4]: significant increase in insulin secretion |
| C[C@@H]1O[C@@H](OC[C@H]2O[C@@H](Oc3c(-c4ccc(O)c(O)c4)oc4cc(O)cc(O)c4c3=O)[C@H](O)[C@@H](O)[C@@H]2O)[C@H](O)[C@H](O)[C@H]1O [rutin, 2-(3,4-dihydroxyphenyl)-5,7-dihydroxy-3-[(2S,3R,4S,5S,6R)-3,4,5-trihydroxy-6-[[(2R,3R,4R,5R,6S)-3,4,5-trihydroxy-6-methyloxan-2-yl]oxymethyl]oxan-2-yl]oxychromen-4-one] |  | decreased DYRK1A activity dose-dependently | 4.5 | significantly reduced CyclinD1 phosphorylation | twofold | did not influence cell viability | did not influence cell viability | LogP [8]: negative logP; cytotoxic effect, combination with LY364947 or GLP-1 [10]: slight cytotoxic effect |
| COc1ccc(-c2cc(=O)c3c(OC)c(OC)c(OC)cc3o2)cc1OC [sinensetin, 2-(3,4-dimethoxyphenyl)-5,6,7-trimethoxychromen-4-one] |  | no influence on DYRK1A activity |  |  |  |  |  |  |
| GLP-1: GLP-1R agonist | up to 5% |  |  |  |  |  |  | effect on insulin level over 12 days [2]: robust increase in insulin production level in the late stage of the experiment (day 5–12); effect on insulin level over 12 days [3]: robust increase in insulin production level in the late stage of the experiment (day 5–12) |
